Broadly, the IC50 is the midpoint of a concentration-inhibition curve. A lower IC50 goes with greater potency.

The assay concerns the target DNA polymerase beta (Homo sapiens, UniProt P06746). The assay is described as follows: Inhibition of DNA polymerase beta lyase activity.
Molecule `C[C@H]1[C@H](C)CC[C@]2(C(=O)O)CC[C@]3(C)C(=CC[C@@H]4[C@@]5(C)CC[C@H](OC(=O)/C=C/c6ccc(O)cc6)C(C)(C)[C@@H]5CC[C@]43C)[C@H]12` yielded a 50% inhibitory concentration (IC50) of over 50 µM.

As for `CC(=O)O[C@H]1[C@H](O)C[C@]2(C)[C@H]3CC=C4[C@@H]5[C@@H](C)[C@H](C)CC[C@]5(C(=O)O)CC[C@@]4(C)[C@]3(C)CC[C@H]2C1(C)C`, half-maximal inhibition (IC50) was put at 21.5 µM.

The molecule `C[C@H]1[C@H](C)CC[C@]2(C(=O)O)CC[C@]3(C)C(=CC[C@@H]4[C@@]5(C)C[C@@H](O)[C@H](O)C(C)(C)[C@@H]5CC[C@]43C)[C@H]12` [COROSOLIC ACID] registered a half-maximal inhibitory concentration (IC50) of 12.6 µM.

`CC[C@H](CC[C@@H](C)[C@H]1CC[C@H]2[C@@H]3CC=C4C[C@@H](O[C@@H]5O[C@H](CO)[C@@H](O)[C@H](O)[C@H]5O)CC[C@]4(C)[C@H]3CC[C@]12C)C(C)C` [SITOGLUSIDE] yielded an IC50 of 26.5 µM.

Molecule `C[C@H]1[C@H](C)CC[C@]2(C(=O)O)CC[C@]3(C)C(=CC[C@@H]4[C@@]5(C)CC[C@H](O)C(C)(C)[C@@H]5CC[C@]43C)[C@H]12` [URSOLIC ACID] returned a half-inhibitory concentration (IC50) of 18.6 µM.

The values are drawn from ChEMBL document CHEMBL1151218, “A new ursane triterpene from Monochaetum vulcanicum that inhibits DNA polymerase beta lyase” (J Nat Prod, 2004).
